Each structure is given as a SMILES string.

What is called inhibition is the change of the read-out against control, counted positive when it falls. A high value points to a strong effect. In general, IC50 refers to the concentration that inhibits the measured activity by half.

Assay [1] has as its target T1, Polyunsaturated fatty acid 5-lipoxygenase (Rattus norvegicus) (UniProt P12527).
T1 sequence (whole entry): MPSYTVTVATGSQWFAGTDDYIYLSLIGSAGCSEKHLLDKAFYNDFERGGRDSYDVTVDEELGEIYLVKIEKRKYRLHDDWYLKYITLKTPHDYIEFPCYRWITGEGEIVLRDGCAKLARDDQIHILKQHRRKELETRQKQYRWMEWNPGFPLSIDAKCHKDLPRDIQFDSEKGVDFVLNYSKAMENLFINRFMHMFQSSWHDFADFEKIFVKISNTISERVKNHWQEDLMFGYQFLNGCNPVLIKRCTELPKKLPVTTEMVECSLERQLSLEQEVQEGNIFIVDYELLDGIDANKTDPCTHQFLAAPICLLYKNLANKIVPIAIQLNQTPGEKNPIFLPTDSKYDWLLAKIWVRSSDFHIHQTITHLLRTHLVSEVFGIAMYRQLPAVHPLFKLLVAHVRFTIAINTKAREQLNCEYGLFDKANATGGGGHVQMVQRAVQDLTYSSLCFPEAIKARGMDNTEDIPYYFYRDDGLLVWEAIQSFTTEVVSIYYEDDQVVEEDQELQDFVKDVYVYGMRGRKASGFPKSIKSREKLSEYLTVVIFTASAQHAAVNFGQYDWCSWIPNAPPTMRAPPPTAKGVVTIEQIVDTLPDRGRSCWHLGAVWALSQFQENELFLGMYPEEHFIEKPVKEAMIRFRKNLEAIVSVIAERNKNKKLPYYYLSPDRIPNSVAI
The assay is described as follows: In vitro percent inhibition against 5-lipoxygenase in RBL-1 cells at 10 uM concentration. It counts as cell-based.

Assay [2] deals with T2, Polyunsaturated fatty acid 5-lipoxygenase (Rattus norvegicus, UniProt P12527).
T2 sequence (P12527 whole entry): T1 sequence (whole entry)
The assay is described as follows: In vitro inhibitory concentration against 5-lipoxygenase in RBL-1 cells. It counts as cell-based.

The target in assay [3] is T1, Polyunsaturated fatty acid 5-lipoxygenase (Rattus norvegicus). The note with it: RBL-1; 10 uM.
The target is the same in assay [4]. Nature of the assay: In vitro percent inhibition against 5-lipoxygenase in RBL-1 cells at 1 uM concentration. It counts as cell-based.

As to `CN(NS(=O)(=O)c1ccccc1)c1ccccc1`, the inhibition in assay [1] is 53%.

For the molecule `COc1ccc2c(c1)CCN2NC(=O)c1ccccc1`, the inhibition in assay [1] was determined as 20%.

`O=C(NN1CCc2cc(O)ccc21)c1ccccc1`: the IC50 in assay [2] turned out to be 3.47 µM. This molecule also had an inhibition in assay [1] of 80%.

For `CC(Cc1ccc(O)c(O)c1)C(C)Cc1ccc(O)c(O)c1` (centres undefined), the inhibition in assay [3] amounted to 73%.

As for `O=C(NN1CCc2ccccc21)c1ccccc1`, the inhibition in assay [1] is 15%.

`O=C(O)CCC/C=C/c1ccc(C(=O)NN2CCc3ccccc32)cc1`: in assay [1], the inhibition came out at 18%.

On to `CCCCCCCCCCNC(=O)CCC/C=C/c1ccc(C(=O)NN2CCc3ccccc32)cc1`, for which the inhibition in assay [4] worked out at 57%.

Molecule `CN(NC(=O)c1ccccc1)c1ccccc1` showed an inhibition in assay [1] of 28%.
